{
  "source": "patent US10358663B2",
  "about": "“Method of production of 2,4-dihydroxybutyric acid” (ADISSEO FRANCE S.A.S., priority 2010, dated 2019)",
  "key": {"[1]": {"target": "E. coli aspartate kinase LysC variant E119G T344M, SEQ ID NO: 41 (Escherichia coli, UniProt P08660, E119G/T344M)", "sequence (P08660 whole entry E119G/T344M)": "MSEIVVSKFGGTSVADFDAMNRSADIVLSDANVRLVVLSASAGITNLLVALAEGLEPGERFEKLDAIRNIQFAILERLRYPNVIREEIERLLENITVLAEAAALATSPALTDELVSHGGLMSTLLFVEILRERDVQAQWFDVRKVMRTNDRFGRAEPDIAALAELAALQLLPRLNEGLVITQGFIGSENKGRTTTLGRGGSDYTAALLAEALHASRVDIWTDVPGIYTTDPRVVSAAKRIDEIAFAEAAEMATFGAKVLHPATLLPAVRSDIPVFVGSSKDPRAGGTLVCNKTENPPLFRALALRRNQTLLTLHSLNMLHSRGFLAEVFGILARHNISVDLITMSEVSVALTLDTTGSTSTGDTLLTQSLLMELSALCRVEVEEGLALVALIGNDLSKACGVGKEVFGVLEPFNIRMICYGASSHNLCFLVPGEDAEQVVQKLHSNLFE", "assay": "Lysine inhibition of malate kinase activity, LysC E119G T344M", "type": "biochemical", "details": "elevated lysine concentrations", "procedure": "(§1) The assay mixture contained 50 mM Hepes (pH 7.5), 50 mM KCl, 5 mM MgCl2, 0.24 mM NADH, 0.96 mM ATP, 0.96 mM PEP, 9 μg/mL of lactate dehydrogenase (Sigma, L2500), 12.4 μg/mL pyruvate kinase (Sigma, P1506), and appropriate amounts of purified aspartate (malate) kinase. Reactions were started by adding 50 mM (L)-aspartate or (L)-malate. Enzymatic assays were carried out at 30° C. in 96-well flat bottomed microtiter plates in a final volume of 250 μL. The reactions were followed by the characteristic absorption of NADH at 340 nm in a microplate reader (BioRad 680XR).\n(§2) Expression and purification of enzymes: Protein expression for the His-tagged enzymes LysC E119G, LysC E119G E250K, LysC E119G T344M, LysC E119G S345L, LysC E119G T352I was carried out as described in Example 1.\n(§3) Enzymatic assay: Malate kinase activities were assayed as described in Example 1. Lysine concentration in the reaction buffer was varied."}, "[2]": {"target": "E. coli aspartate kinase LysC variant E119G S345L, SEQ ID NO: 45 (Escherichia coli, UniProt P08660, E119G/S345L)", "sequence (P08660 whole entry E119G/S345L)": "as the sequence (P08660 whole entry E119G/T344M) above, with M344T, S345L counted along it", "assay": "Lysine inhibition of malate kinase activity, LysC E119G S345L", "type": "biochemical", "details": "elevated lysine concentrations", "procedure": "as §1, §2, §3"}, "[3]": {"target": "E. coli aspartate kinase LysC variant E119G E250K, SEQ ID NO: 39 (Escherichia coli, UniProt P08660, E119G/E250K)", "sequence (P08660 whole entry E119G/E250K)": "as the sequence (P08660 whole entry E119G/T344M) above, with E250K, M344T counted along it", "assay": "Lysine inhibition of malate kinase activity, LysC E119G E250K", "type": "biochemical", "details": "elevated lysine concentrations", "procedure": "as §1, §2, §3"}, "[4]": {"target": "T1, Metallosphaera sedula succinic semialdehyde reductase Ms-SSR, wild type, SEQ ID NO: 76 (Metallosphaera sedula, UniProt A4YGN0)", "T1 sequence (A4YGN0 1-360)": "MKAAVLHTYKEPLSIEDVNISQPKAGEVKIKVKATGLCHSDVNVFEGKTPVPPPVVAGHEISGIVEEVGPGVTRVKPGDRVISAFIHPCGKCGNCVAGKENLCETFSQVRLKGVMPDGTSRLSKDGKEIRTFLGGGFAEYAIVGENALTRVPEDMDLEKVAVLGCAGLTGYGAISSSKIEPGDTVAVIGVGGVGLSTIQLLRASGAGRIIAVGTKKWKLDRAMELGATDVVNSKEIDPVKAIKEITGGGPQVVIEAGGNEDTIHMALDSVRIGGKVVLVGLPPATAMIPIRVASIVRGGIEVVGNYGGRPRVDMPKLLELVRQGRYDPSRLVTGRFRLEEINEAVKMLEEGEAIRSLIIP", "assay": "Malate semialdehyde reductase assay, Ms-SSR wild type", "type": "biochemical", "details": "pH 7.5, 30° C.", "procedure": "(§4) Test for Malate Semialdehyde Reductase Activity: Reaction: (L)-Malate semialdehyde+NAD(P)H→(L)-2,4-dihydroxybutyric acid+NAD(P)\n(§5) The assay mixture contained 200 mM Hepes (pH 7.5), 50 mM KCl, 5 mM MgCl2, 0.24 mM NADH or NADPH, and appropriate amounts of purified enzyme. Reactions were started by adding 10 mM (L)-malate semialdehyde (malate semialdehyde was prepared freshly for each test, see Example 4). Enzymatic assays were carried out at 30° C. in 96-well flat bottomed microtiter plates in a final volume of 250 μL. The reactions were followed by the characteristic absorption of NAD(P)H at 340 nm in a microplate reader (BioRad 680XR)."}, "[5]": {"target": "T2, Metallosphaera sedula succinic semialdehyde reductase Ms-SSR variant N43H, SEQ ID NO: 227 (Metallosphaera sedula, UniProt A4YGN0, N43H)", "T2 sequence (A4YGN0 1-360 N43H)": "T1 sequence (A4YGN0 1-360) with N43H", "assay": "Malate semialdehyde reductase assay, Ms-SSR N43H", "type": "biochemical", "details": "pH 7.5, 30° C.", "procedure": "as §4, §5\n(§6) Site-directed mutagenesis was carried out using the oligonucleotide pairs listed in Table 8 and the pMs-SSR plasmid as the template. Point mutations to change the amino acid sequences were introduced by PCR (Phusion 1U, HF buffer 20% (v/v), dNTPs 2.5 mM, direct and reverse primers 1 μM each, template plasmid 200 ng, water). When possible, plasmids created by PCR contained new restriction sites (introduced using silent mutations) in addition to the functional mutation to facilitate identification of mutated clones. The PCR products were digested by DpnI at 37° C. for 1 h to remove template DNA, and transformed into NEB 5-alpha competent E. coli cells (NEB). […]"}, "[6]": {"target": "T3, Metallosphaera sedula succinic semialdehyde reductase Ms-SSR variant H39R N43H, SEQ ID NO: 81 (Metallosphaera sedula, UniProt A4YGN0, H39R/N43H)", "T3 sequence (A4YGN0 1-360 H39R/N43H)": "T1 sequence (A4YGN0 1-360) with H39R, N43H", "assay": "Malate semialdehyde reductase assay, Ms-SSR H39R N43H", "type": "biochemical", "details": "pH 7.5, 30° C.", "procedure": "as §4, §5, §6"}, "[7]": {"target": "T4, Metallosphaera sedula succinic semialdehyde reductase Ms-SSR variant H39R, SEQ ID NO: 225 (Metallosphaera sedula, UniProt A4YGN0, H39R)", "T4 sequence (A4YGN0 1-360 H39R)": "T1 sequence (A4YGN0 1-360) with H39R", "assay": "Malate semialdehyde reductase assay, Ms-SSR H39R", "type": "biochemical", "details": "pH 7.5, 30° C.", "procedure": "as §4, §5, §6"}, "malic enzyme": {"target": "T5, malic enzyme (Rattus norvegicus, UniProt P13697)", "T5 sequence (P13697 1-572)": "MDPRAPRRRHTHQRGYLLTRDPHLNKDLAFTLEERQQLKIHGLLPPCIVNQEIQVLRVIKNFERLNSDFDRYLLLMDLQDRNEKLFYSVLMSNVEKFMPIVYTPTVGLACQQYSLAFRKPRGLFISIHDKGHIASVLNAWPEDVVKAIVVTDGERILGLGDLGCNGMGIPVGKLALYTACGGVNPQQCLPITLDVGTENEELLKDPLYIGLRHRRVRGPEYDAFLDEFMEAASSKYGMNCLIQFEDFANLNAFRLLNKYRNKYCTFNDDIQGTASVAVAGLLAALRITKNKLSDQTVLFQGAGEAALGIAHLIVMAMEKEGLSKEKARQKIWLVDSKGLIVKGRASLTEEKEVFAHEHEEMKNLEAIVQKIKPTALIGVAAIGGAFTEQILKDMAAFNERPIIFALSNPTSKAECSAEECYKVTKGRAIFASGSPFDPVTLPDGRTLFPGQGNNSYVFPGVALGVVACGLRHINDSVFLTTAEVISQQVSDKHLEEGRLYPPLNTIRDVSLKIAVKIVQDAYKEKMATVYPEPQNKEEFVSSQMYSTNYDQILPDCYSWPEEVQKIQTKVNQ", "details": "cited from earlier work"}},
  "note": "Changes are numbered by the printed parent chain.",
  "data": [
    {"smiles": "NCCCC[C@H](N)C(=O)O", "note": "[lysine]", "values": [
      {"measurement": "sensitivity of malate kinase activity to lysine", "setting": "[1]", "value": "largely insensitive"},
      {"measurement": "sensitivity of malate kinase activity to lysine", "setting": "[2]", "value": "largely insensitive"},
      {"measurement": "sensitivity of malate kinase activity to lysine", "setting": "[3]", "value": "largely insensitive"}
    ]},
    {"smiles": "O=CC[C@H](O)C(=O)O", "note": "[malate semialdehyde, (L)-malate semialdehyde]", "values": [
      {"measurement": "Maximum activity", "setting": "[4]", "value": "4.9 μmol/(min* mgprot)"},
      {"measurement": "Maximum activity", "setting": "[5]", "value": "4.3 μmol/(min* mgprot)"},
      {"measurement": "Maximum activity", "setting": "[6]", "value": "4.7 μmol/(min* mgprot)"},
      {"measurement": "Maximum activity", "setting": "[7]", "value": "1.7 μmol/(min* mgprot)"}
    ]},
    {"smiles": "O=C(O)C(O)CCO", "note": "(centres unmarked) [DHB, 2,4-dihydroxybutyric acid]", "values": [
      {"measurement": "Mode of inhibition of malic enzyme", "setting": "malic enzyme", "value": "competitive inhibitor"}
    ]}
  ]
}
